Test results published in ChEMBL document CHEMBL5728238, “Inhibiting agents for Bruton's tyrosine kinase” (2021).

Target: Tyrosine-protein kinase BTK (Homo sapiens, UniProt Q06187)
Assay: In Vitro Kinase Assay: The purpose of the BTK in vitro assay is to determine compound potency against BTK through the measurement of IC50. Compound inhibition is measured after monitoring the amount of phosphorylation of a fluorescein-labeled polyGAT peptide (Invitrogen PV3611) in the presence of active BTK enzyme (Upstate 14-552), ATP, and inhibitor. The BTK kinase reaction was done in a black 96 well plate (costar 3694). For a typical assay, a […] aliquot of a ATP/peptide master mix (final concentration; […], polyGAT 100 nM) in kinase buffer (10 mM Tris-HCl pH 7.5, 10 mM MgCl2, 200 μM Na3PO4, 5 mM DTT, 0.01% Triton X-100, and 0.2 mg/ml casein) is added to each well. Next, […] of a 4-fold, 40× compound titration in 100% DMSO solvent is added, followed by adding 15 μL of BTK enzyme mix in 1× kinase buffer (with a final concentration of 0.25 nM). The assay is incubated for 30 minutes before being stopped with 28 μL of a 50 mM EDTA solution. Aliquots (5 μL) of the kinase reaction are transferred to a low volume white 384 well plate (Corning 3674), and 5 μL of a 2× detection buffer (Invitrogen PV3574, with 4 nM Tb-PY20 antibody, Invitrogen PV3552) is added. The plate is covered and incubated for 45 minutes at room temperature. Time resolved fluorescence (TRF) on Molecular Devices M5 (332 nm excitation; 488 nm emission; 518 nm fluorescein emission) is measured. […]

Sequence of Tyrosine-protein kinase BTK (Q06187 whole entry): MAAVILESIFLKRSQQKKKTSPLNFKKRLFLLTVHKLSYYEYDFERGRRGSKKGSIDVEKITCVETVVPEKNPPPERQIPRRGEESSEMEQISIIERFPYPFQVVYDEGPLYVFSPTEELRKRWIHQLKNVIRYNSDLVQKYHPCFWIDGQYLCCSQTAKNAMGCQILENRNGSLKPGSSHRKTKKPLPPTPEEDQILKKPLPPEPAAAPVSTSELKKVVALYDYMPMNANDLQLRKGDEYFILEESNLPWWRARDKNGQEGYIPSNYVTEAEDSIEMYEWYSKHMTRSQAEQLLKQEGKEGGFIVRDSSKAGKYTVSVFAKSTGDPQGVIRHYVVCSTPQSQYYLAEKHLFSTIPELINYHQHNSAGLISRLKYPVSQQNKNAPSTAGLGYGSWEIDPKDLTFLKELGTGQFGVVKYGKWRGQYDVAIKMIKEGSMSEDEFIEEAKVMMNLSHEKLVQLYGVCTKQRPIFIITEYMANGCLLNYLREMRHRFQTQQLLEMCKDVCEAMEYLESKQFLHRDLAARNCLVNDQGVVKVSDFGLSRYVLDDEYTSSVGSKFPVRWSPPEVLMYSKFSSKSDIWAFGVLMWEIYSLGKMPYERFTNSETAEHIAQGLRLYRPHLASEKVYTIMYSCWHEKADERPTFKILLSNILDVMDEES

Q: Which IC50 does the source give for `Cc1cc(-c2ncnc(Nc3cnn(C)c3)n2)ccc1CNC(=O)c1cc(C(C)(C)C)on1` here?
A: < 1 nM

Q: How did the IC50 turn out when `Cc1cc(-c2ncnc(Nc3cnn(C)c3)n2)ccc1CNC(=O)c1noc(C2[C@@H](C)[C@H]2C)n1` (some centres not stated) was run?
A: < 1 nM
